In ChEMBL document CHEMBL1201862, “PubChem BioAssay data set” (2004):
The source made the active and inactive calls.

Key:
[1] = target: T1, DNA repair and recombination protein RAD54-like (Homo sapiens, UniProt Q92698); assay: RAD54 Holliday junction migration blockers – biochemical, fluorescence, cherry-picked samples, dose series, confirmation (AID 651657); format: functional
T1 sequence (Q92698 whole entry): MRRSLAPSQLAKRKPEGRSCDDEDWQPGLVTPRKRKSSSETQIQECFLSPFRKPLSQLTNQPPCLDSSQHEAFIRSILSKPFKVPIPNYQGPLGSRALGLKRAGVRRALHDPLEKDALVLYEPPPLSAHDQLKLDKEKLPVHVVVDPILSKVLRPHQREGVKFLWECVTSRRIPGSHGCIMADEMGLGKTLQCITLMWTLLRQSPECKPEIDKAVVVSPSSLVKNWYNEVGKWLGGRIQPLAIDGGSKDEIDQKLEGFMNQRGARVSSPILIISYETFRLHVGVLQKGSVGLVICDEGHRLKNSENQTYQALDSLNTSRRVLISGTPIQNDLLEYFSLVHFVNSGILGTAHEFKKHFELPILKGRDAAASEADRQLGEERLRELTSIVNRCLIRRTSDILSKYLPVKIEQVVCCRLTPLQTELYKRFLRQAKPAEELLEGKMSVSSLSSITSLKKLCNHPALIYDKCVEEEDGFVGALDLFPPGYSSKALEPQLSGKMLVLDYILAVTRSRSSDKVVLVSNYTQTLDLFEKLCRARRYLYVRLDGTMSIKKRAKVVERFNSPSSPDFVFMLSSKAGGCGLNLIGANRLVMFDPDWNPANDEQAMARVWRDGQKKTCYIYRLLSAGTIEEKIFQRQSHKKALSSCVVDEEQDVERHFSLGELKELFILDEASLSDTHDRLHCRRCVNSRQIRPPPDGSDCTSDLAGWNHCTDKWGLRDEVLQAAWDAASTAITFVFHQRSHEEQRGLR

Leucine aminopeptidase = target: T2, Leucine aminopeptidase (Plasmodium falciparum 3D7, UniProt Q8IL11); assay: P. falciparum M17LAP inhibitors, primary screen, biochemical, fluorogenic H-Leu-NHMec substrate, 1536-well (AID 1619); format: functional
T2 sequence (Q8IL11 whole entry): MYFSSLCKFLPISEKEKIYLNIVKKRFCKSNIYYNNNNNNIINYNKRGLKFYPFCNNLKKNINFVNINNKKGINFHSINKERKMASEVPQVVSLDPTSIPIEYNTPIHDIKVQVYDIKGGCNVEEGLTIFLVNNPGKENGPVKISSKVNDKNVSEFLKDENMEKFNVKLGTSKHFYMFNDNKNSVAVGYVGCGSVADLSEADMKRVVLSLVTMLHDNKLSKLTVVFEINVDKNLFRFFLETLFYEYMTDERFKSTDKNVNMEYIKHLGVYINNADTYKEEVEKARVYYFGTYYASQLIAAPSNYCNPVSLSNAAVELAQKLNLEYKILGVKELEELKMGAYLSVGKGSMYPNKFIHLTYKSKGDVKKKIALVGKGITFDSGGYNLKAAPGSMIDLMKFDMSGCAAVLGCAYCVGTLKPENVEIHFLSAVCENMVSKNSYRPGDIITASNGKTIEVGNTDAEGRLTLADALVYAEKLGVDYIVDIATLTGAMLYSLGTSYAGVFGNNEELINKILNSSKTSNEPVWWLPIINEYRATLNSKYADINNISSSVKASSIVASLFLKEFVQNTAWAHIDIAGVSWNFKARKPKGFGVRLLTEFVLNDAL

Fatty acid synthase [2] = target: T3, Fatty acid synthase (Homo sapiens, UniProt P49327); assay: inhibition of human FAS-TE enzyme activity – biochemical, endpoint fluorescence intensity, uHTS hits, dose response (AID 624327); format: functional;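 further: fluorescence from hydrolysis of an O-methyl fluorescein acyl ester substrate by the enzyme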
Fatty acid synthase [3] = target: T3, Fatty acid synthase; assay: inhibition of human FAS-TE enzyme activity – biochemical, kinetic fluorescence intensity, dose response (AID 624326); format: functional;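 further: rate of fluorescence rise from hydrolysis of a fluorogenic O-methyl fluorescein ester substrate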
[4] = HIV-1 Vif–A3G interaction blockers – biochemical, TR-FRET, GST-Vif 1-94, biotin-A3G peptide, dose response retest, primary screen (AID 1117319); format: functional;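 further: TR-FRET signal of purified GST-Vif binding a biotinylated A3G peptide; inhibitors lower the FRET signal by blocking Vif and A3G binding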
Paired box protein Pax-8 = Paired box protein Pax-8 (Homo sapiens, UniProt Q06710); assay: PAX8 transcriptional activity inhibition in RMG-I – RMG-I cells, luciferase, cherry-pick, dose response (AID 687027); format: functional, cell-based;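 further: luciferase reporter driven by Pax8 target thyroperoxidase promoter measured by SteadyGlo luminescence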
[5] = inhibitors acting on PAX2 in cells – cell-based, plate reader, dry powder samples, selectivity assay for PAX8 inhibitor project, dose response (AID 743048); format: functional;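 further: HEK293 cells carrying a WT1 promoter luciferase reporter driven by expressed Pax2; potency is for inhibition of Pax2 driven reporter signal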
[6] = OVCAR8 cell viability loss – plate reader, dry powder samples, PAX8 project, dose response (AID 743197); format: functional, cell-based; settings: OVCAR-8
[7] = PAX8-dependent cell viability loss – plate reader, dry powder, dose response (AID 743049); format: functional, cell-based
[8] = target: T4, DNA repair protein RAD52 homolog (Homo sapiens, UniProt P43351); format: functional, biochemical
T4 sequence (P43351 whole entry): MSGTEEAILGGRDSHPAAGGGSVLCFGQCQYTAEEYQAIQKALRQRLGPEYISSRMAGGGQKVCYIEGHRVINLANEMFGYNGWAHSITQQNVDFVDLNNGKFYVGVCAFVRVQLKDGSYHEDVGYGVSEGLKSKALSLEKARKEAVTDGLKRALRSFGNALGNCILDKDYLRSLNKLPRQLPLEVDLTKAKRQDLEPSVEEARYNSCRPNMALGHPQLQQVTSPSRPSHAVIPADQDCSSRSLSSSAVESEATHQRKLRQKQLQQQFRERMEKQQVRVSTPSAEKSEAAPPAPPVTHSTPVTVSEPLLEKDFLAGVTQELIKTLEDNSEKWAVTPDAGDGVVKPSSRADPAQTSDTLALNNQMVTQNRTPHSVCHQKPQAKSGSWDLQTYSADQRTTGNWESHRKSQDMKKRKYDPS

[9] = Luminescence Cell-Based Dose Confirmation HTS to Identify Activators of 5'UTR Stem-Loop Driven Alpha-Synuclein mRNA Translation in H4 Neuroglioblastoma Cells. [Related pubchem assays: 1829 (Project Summary), 1814 (Primary HTS)]; format: functional
[10] = Luminescence Cell-Based Dose Response HTS to Identify Activators of Luciferase Translation or Activity in H4 […] Cells. [Related pubchem assays: 1829 (Project Summary), 1814 (Primary HTS)]; format: functional
H4 = assay: Luminescence Cell-Based Dose Response HTS to Identify Activators of 5'UTR Stem-Loop Driven Prion Protein mRNA Translation in H4 Neuroglioblastoma Cells. [Related pubchem assays: 1829 (Project Summary), 1814 (Primary HTS)]; format: functional; settings: Homo sapiens
[11] = target: 26S proteasome non-ATPase regulatory subunit 14 (Homo sapiens, UniProt O00487); assay: inhibition of proteasome subunit RPN11 – biochemical, fluorescence polarization, uHTS hits, confirmation (AID 602368); format: functional
[12] = target: 72 kDa type IV collagenase (Homo sapiens, UniProt P08253); assay: Dose Response validation of uHTS RPN11 inhibitor hits using a MMP-2 Fluorescence assay.; format: functional
Prothrombin = Prothrombin (Bos taurus, UniProt P00735); assay: thrombin protease inhibitors – biochemical, fluorescence polarization, uHTS hits, dose response (AID 602369); format: functional
[13] = target: Heat shock protein HSP 90-alpha (Homo sapiens, UniProt P07900); format: functional, organism-based
H9c2 = assay: cells; format: functional, cell-based; settings: Rattus norvegicus, H9c2, Myocardium
[14] = target: T5, Apoptotic protease-activating factor 1 (Homo sapiens, UniProt O14727); format: functional
T5 sequence (O14727 whole entry): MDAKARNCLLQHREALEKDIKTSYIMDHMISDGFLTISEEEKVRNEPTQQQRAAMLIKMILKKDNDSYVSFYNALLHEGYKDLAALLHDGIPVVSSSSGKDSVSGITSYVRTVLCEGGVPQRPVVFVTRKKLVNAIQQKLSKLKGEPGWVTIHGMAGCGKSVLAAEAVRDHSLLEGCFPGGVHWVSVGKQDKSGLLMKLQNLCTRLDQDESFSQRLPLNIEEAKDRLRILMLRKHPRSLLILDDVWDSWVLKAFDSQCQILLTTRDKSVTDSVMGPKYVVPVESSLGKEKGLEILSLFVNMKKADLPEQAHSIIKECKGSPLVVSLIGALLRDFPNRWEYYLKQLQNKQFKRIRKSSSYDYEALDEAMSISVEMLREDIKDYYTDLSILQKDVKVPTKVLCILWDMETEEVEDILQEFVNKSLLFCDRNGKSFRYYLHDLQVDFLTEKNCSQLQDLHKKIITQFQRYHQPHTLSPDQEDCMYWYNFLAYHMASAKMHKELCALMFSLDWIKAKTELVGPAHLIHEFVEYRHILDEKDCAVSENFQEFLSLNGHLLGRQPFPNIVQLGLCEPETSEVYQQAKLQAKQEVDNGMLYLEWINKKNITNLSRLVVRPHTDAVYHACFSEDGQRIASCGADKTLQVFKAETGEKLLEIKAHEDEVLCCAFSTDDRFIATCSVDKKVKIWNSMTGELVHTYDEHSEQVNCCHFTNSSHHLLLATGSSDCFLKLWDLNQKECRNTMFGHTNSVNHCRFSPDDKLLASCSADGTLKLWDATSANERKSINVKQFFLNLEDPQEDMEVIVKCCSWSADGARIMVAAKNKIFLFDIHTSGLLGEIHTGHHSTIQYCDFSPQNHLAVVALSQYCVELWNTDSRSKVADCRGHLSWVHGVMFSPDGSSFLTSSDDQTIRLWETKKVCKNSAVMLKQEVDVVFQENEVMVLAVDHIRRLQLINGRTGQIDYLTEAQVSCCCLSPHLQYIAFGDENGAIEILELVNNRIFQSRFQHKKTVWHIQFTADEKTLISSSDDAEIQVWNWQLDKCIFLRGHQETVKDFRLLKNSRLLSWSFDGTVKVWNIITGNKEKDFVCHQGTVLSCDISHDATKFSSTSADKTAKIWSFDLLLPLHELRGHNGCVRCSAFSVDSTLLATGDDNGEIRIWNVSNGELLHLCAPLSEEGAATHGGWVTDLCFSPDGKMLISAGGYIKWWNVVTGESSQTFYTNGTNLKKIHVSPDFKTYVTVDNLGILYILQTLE

T3 sequence (P49327 whole entry): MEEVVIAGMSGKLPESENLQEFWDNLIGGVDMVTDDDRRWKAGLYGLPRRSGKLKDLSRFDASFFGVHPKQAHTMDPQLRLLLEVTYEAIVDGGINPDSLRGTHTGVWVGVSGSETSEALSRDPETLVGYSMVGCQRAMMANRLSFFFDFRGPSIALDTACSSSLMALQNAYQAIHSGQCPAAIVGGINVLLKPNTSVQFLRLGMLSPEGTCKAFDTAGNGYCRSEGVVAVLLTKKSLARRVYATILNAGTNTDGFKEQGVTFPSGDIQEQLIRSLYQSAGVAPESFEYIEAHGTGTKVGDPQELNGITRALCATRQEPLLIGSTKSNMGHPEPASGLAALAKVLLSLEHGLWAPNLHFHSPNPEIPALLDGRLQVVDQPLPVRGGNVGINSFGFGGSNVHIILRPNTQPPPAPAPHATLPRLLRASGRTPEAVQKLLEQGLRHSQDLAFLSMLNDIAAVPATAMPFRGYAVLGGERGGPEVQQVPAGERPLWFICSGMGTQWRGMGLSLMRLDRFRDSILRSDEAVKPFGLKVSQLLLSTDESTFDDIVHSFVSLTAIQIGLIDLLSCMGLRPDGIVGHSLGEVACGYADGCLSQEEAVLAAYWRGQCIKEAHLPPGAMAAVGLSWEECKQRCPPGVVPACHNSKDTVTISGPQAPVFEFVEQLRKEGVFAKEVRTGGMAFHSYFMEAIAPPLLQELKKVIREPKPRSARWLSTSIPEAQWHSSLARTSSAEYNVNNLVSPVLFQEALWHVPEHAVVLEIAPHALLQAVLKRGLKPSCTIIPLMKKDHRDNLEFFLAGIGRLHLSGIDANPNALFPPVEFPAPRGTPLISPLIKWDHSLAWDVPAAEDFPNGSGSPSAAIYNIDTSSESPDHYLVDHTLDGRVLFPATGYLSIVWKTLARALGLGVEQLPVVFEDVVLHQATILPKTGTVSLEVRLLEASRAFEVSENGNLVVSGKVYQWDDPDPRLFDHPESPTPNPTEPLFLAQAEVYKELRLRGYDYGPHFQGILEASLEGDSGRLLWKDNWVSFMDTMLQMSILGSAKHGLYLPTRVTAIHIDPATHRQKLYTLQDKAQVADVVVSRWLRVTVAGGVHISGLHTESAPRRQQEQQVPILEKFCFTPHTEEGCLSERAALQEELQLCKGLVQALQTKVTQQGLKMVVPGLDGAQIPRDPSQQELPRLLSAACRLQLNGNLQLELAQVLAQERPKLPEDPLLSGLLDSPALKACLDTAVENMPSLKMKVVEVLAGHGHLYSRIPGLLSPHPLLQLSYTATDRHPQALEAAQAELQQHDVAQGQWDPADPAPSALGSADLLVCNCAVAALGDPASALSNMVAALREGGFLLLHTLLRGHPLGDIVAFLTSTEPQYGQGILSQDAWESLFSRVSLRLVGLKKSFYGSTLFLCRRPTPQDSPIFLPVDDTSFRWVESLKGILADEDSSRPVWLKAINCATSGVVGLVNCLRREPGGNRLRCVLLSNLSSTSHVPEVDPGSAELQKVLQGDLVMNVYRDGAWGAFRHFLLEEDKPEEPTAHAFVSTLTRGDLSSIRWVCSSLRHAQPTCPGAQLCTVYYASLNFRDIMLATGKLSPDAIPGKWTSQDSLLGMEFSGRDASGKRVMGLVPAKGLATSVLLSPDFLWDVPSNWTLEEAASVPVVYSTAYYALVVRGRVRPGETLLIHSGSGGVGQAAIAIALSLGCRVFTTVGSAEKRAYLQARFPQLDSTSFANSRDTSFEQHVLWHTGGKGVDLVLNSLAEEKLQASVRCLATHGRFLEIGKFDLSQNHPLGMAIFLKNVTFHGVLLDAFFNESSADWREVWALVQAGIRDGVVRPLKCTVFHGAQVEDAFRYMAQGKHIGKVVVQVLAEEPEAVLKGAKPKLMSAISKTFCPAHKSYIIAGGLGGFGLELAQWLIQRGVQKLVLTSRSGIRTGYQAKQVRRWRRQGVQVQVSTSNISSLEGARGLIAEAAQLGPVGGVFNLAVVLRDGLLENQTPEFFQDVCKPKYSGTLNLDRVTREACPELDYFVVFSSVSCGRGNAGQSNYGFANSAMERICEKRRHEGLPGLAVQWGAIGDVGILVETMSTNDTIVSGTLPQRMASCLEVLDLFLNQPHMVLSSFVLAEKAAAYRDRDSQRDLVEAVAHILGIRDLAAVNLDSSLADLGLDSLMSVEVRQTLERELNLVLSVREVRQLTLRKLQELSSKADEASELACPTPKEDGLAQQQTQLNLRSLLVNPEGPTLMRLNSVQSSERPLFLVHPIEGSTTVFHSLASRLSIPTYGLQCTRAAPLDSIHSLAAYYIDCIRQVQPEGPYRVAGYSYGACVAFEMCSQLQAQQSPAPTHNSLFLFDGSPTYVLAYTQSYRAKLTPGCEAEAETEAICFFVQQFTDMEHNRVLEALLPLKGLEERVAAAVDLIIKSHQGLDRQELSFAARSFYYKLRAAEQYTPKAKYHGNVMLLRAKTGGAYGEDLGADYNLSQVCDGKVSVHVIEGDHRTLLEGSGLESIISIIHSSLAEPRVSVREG
Sequence of 72 kDa type IV collagenase (P08253 whole entry): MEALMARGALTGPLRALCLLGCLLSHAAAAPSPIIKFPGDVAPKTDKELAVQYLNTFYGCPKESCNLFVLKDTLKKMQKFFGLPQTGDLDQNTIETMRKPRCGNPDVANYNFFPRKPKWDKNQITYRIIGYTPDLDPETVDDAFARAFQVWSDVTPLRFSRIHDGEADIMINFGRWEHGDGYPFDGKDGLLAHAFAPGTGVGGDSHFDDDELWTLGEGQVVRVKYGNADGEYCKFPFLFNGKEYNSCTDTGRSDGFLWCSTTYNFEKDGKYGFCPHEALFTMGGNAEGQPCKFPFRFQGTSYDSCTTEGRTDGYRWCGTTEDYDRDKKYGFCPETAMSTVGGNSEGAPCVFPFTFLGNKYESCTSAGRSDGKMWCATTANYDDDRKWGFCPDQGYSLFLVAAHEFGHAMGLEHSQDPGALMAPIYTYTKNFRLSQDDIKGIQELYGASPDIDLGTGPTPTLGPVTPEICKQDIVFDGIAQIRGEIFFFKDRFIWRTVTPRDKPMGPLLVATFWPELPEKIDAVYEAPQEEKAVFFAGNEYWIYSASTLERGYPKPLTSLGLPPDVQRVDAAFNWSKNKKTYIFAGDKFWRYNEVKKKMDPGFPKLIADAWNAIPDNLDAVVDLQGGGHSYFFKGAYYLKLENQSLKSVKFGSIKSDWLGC
Sequence of 26S proteasome non-ATPase regulatory subunit 14 (O00487 whole entry): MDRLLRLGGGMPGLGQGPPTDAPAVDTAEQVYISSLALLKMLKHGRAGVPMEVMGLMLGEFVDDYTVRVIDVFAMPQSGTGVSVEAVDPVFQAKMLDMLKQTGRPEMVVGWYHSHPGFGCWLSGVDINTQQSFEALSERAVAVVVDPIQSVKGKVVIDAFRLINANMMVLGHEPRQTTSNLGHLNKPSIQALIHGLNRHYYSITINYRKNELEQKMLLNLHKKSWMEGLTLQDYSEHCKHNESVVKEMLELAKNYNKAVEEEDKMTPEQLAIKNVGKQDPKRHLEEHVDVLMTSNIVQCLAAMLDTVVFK
Sequence of Paired box protein Pax-8 (Q06710 whole entry): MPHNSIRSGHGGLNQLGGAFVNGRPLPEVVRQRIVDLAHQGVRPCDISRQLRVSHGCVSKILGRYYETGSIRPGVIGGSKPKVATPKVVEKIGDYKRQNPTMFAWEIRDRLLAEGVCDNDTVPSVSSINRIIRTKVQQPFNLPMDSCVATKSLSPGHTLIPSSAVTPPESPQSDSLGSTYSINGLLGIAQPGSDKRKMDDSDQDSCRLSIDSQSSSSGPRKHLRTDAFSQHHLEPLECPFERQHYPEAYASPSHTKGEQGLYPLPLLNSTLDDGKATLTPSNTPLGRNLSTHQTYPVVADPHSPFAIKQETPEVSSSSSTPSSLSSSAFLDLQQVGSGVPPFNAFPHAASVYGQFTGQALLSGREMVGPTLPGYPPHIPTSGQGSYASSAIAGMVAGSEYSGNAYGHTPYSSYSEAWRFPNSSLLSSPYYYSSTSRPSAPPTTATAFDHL

## CN(C)CCCNc1nc2cc(-c3ccc(C(=O)N4CCN(C)CC4)cc3)sc2c(=O)n1C
[1]
  AC50: 47.7 µM (active)

## NC(=O)c1c(NC(=S)Nc2ccc(F)cc2)sc2c1CCCC2
Leucine aminopeptidase
  IC50: 92 µM (active)

## CCc1nc2c(OCc3ccc(Cl)cc3Cl)cccn2c1N(C=O)Cc1ccc(OC)cc1
Fatty acid synthase [2]
  IC50: 2.45 µM (active)
Fatty acid synthase [3]
  IC50: 1.46 µM (active)

## CC1(C)CCN(Cc2ccccc2)C1CC#N (centres undefined)
[4]
  IC50: > 100 µM (active)

## COc1ccc(NC(=O)CSC2CC(=O)N(c3ccc4c(c3)OCCO4)C2=O)cc1 (centres undefined)
Leucine aminopeptidase
  IC50: 16.1 µM (active)

## COc1ccc(S(=O)(=O)Nc2ccc3c(c2)CC(=O)N([C@@H](C)CO)C[C@@H](C)[C@@H](CN(C)Cc2ccc(-c4ccccc4)cc2)O3)cc1
Paired box protein Pax-8
  AC50: 24.6 µM (active)
[5]
  AC50: 42 µM (active)
[6]
  AC50: > 70 µM (inactive)
[7]
  AC50: 44.2 µM (active)

## Cc1csc(N2CCN(c3cc4c(cc3Cl)nc(-c3ccncc3)n4CCCN3CCCC3)CC2)n1
[8]
  AC50: 4.61 µM (active)

## CCc1cc2c(=O)n(-c3ccc(C)cc3)cnc2s1
[4]
  IC50: > 100 µM (active)

## CCN(Cc1ccccc1)C(=O)c1cnc2ccc(S(=O)(=O)N(C)CCC#N)cc2c1O
Fatty acid synthase [2]
  IC50: 12 µM (active)
Fatty acid synthase [3]
  IC50: 7.6 µM (active)

## CCOc1ccc2nc(NC(=O)Cn3[nH]c(=O)c4ccccc4c3=O)sc2c1
[9]
  EC50: > 120 µM (not active)
[10]
  EC50: 5.14 µM (active)
H4
  EC50: 54.3 µM (active)
[11]
  IC50: 39.7 µM (active)
[12]
  IC50: > 100 µM (inactive)
Prothrombin
  IC50: 90.4 µM (active)

## CC1(C)Oc2ccc(C(=O)NC3CCCC3)cc2N(CC(=O)N2CCOCC2)C1=O
[4]
  IC50: > 100 µM (active)

## Cc1cc(N=Nc2ccccc2C(=O)O)c(C)c(C)c1O
[13]
  AC50: 4.36 µM (active)
[11]
  IC50: 25.4 µM (active)
[12]
  IC50: 43.4 µM (active)
Prothrombin
  IC50: 34.2 µM (active)

## CCN(CC)CCCN(C(=O)c1ccc(Br)cc1)c1nc(-c2ccc(OC)cc2)cs1
[8]
  AC50: 17.2 µM (active)

## COc1ccc(NCc2nnc(SCC(=O)N3CCCc4ccccc43)o2)cc1
[4]
  IC50: > 100 µM (active)

## O=C(NCCCCc1ccccc1)c1cccc([N+](=O)[O-])c1
Fatty acid synthase [2]
  IC50: 11.1 µM (active)
Fatty acid synthase [3]
  IC50: 8.43 µM (active)

## COc1ccc(CCn2c(=N)c(C(=O)NCC3CCCO3)cc3c(=O)n4cccc(C)c4nc32)cc1OC (centres undefined)
H9c2
  IC50: > 79 µM (inactive)
[1]
  AC50: 14.4 µM (active)

## COC(=O)c1c(NC(=O)C2C3CCC(O3)C2C(=O)O)sc2c1CCCCCC2 (centres undefined)
Leucine aminopeptidase
  IC50: 48.9 µM (active)

## CCN1C(=O)N(CC)C(=O)C2(Cc3ccccc3N3CCN(c4ccccc4)CC32)C1=O (centres undefined)
[4]
  IC50: > 100 µM (active)

## Cc1ccc(C(=O)NCC(=O)OCc2nnc(-c3ccc([N+](=O)[O-])cc3)o2)s1
Fatty acid synthase [2]
  IC50: 15.1 µM (active)
Fatty acid synthase [3]
  IC50: 12.7 µM (active)

## CCOC(=O)c1c(CN(C)C)n(C)c2c(O)c(N=NC(N)=O)c3ccc(Br)cc3c12
[14]
  IC50: 12.1 µM (active)
[8]
  AC50: 11.6 µM (active)

## O=C(NCCCN1CCOCC1)c1cnn2c(-c3ccccc3)cc(-c3ccccc3)nc12
[1]
  AC50: 27 µM (active)

## O=C(CSc1nnc[nH]1)Nc1ccc(Br)cc1F
Leucine aminopeptidase
  IC50: 29.8 µM (active)
